From ChEMBL document CHEMBL3861944 (Medchemcomm, 2016)

Tests used:
[1] = Cell cycle arrest in human THP1 cells assessed as accumulation at G2/M phase at 1 uM after 24 hrs by flow cytometric method (reference value: 32 +/- 1%); format: functional, cell-based; conditions: THP-1
[2] = Cell cycle arrest in human THP1 cells assessed as accumulation at G2/M phase at 30 uM after 24 hrs by flow cytometric method (reference value: 32 +/- 1%); format: functional, cell-based; conditions: THP-1
[3] = system: ASPC1; assay: Pro-apoptotic activity in human AsPC1 cells assessed as necrotic cells at 30 uM after 24 hrs by annexin V/propidium iodide staining-based flow cytometric method (reference value: 2.1 +/- 0.4%); format: functional
[4] = Cell cycle arrest in human THP1 cells assessed as decrease in cell levels at G2/M phase after 24 hrs by flow cytometric method; format: functional, cell-based; conditions: THP-1
[5] = Cell cycle arrest in human THP1 cells assessed as accumulation at S phase at 0.75 uM after 24 hrs by flow cytometric method (reference value: 16 +/- 2%); format: functional, cell-based; conditions: THP-1
[6] = system: ASPC1; assay: Pro-apoptotic activity in human AsPC1 cells assessed as early apoptotic cells at 50 uM after 24 hrs by annexin V/propidium iodide staining-based flow cytometric method (reference value: 0.8 +/- 0.1%); format: functional
[7] = system: ASPC1; assay: Pro-apoptotic activity in human AsPC1 cells assessed as late apoptotic cells at 75 uM after 24 hrs by annexin V/propidium iodide staining-based flow cytometric method (reference value: 0.8 +/- 0.1%); format: functional
[8] = system: ASPC1; assay: Pro-apoptotic activity in human AsPC1 cells assessed as early apoptotic cells at 10 uM after 24 hrs by annexin V/propidium iodide staining-based flow cytometric method (reference value: 0.8 +/- 0.1%); format: functional
[9] = system: THP-1; assay: Pro-apoptotic activity in human THP1 cells assessed as necrotic cells at 10 uM after 24 hrs by annexin V/propidium iodide staining-based flow cytometric method relative to control; format: functional
[10] = Cell cycle arrest in human AsPC1 cells assessed as accumulation at G0/G1 phase at 50 uM after 24 hrs by flow cytometric method (reference value: 48 +/- 7%); format: functional, cell-based
[11] = Cell cycle arrest in human AsPC1 cells assessed as accumulation at G2/M phase at 100 uM after 24 hrs by flow cytometric method (reference value: 29 +/- 5%); format: functional, cell-based
[12] = Antioxidant activity assessed as DPPH free radical scavenging activity incubated for 30 mins in dark; format: functional
[13] = system: THP-1; assay: Pro-apoptotic activity in human THP1 cells assessed as early apoptotic cells at 1 uM after 24 hrs by annexin V/propidium iodide staining-based flow cytometric method (reference value: 0.4 +/- 0.1%); format: functional
[14] = system: THP-1; assay: Pro-apoptotic activity in human THP1 cells assessed as late apoptotic cells at 0.75 uM after 24 hrs by annexin V/propidium iodide staining-based flow cytometric method (reference value: 0.4 +/- 0.1%); format: functional
[15] = system: ASPC1; assay: Pro-apoptotic activity in human AsPC1 cells assessed as late apoptotic cells at 50 uM after 24 hrs by annexin V/propidium iodide staining-based flow cytometric method (reference value: 0.8 +/- 0.1%); format: functional
[16] = system: ASPC1; assay: Pro-apoptotic activity in human AsPC1 cells assessed as late apoptotic cells at 1 uM after 24 hrs by annexin V/propidium iodide staining-based flow cytometric method (reference value: 0.8 +/- 0.1%); format: functional
[17] = system: ASPC1; assay: Pro-apoptotic activity in human AsPC1 cells assessed as necrotic cells at 75 uM after 24 hrs by annexin V/propidium iodide staining-based flow cytometric method (reference value: 2.1 +/- 0.4%); format: functional
[18] = system: ASPC1; assay: Induction of pro-differentiation of human AsPC1 cells assessed as CD44 expression at 10 uM after 3 days by immunostaining-based micro-capillary flow cytometric method (reference value: 87 +/- 1%); format: functional
[19] = system: THP-1; assay: Pro-apoptotic activity in human THP1 cells assessed as necrotic cells at 1 uM after 24 hrs by annexin V/propidium iodide staining-based flow cytometric method relative to control; format: functional
[20] = system: THP-1; assay: Pro-apoptotic activity in human THP1 cells assessed as early apoptotic cells at 10 uM after 24 hrs by annexin V/propidium iodide staining-based flow cytometric method (reference value: 0.4 +/- 0.1%); format: functional
[21] = system: THP-1; assay: Pro-apoptotic activity in human THP1 cells assessed as necrotic cells at 0.75 uM after 24 hrs by annexin V/propidium iodide staining-based flow cytometric method relative to control; format: functional
[22] = system: ASPC1; assay: Pro-apoptotic activity in human AsPC1 cells assessed as late apoptotic cells at 100 uM after 24 hrs by annexin V/propidium iodide staining-based flow cytometric method (reference value: 0.8 +/- 0.1%); format: functional
[23] = Cell cycle arrest in human THP1 cells assessed as accumulation at S phase after 24 hrs by flow cytometric method; format: functional, cell-based; conditions: THP-1
[24] = Cell cycle arrest in human AsPC1 cells assessed as accumulation at G2/M phase at 10 uM after 24 hrs by flow cytometric method (reference value: 29 +/- 5%); format: functional, cell-based
[25] = Cell cycle arrest in human THP1 cells assessed as accumulation at S phase at 1 uM after 24 hrs by flow cytometric method (reference value: 16 +/- 2%); format: functional, cell-based; conditions: THP-1
[26] = system: ASPC1; assay: Pro-apoptotic activity in human AsPC1 cells after 24 hrs by annexin V/propidium iodide staining-based flow cytometric method; format: functional; conditions: ASPC1, 24 h, read-out: ED50 (the source's name)
[27] = system: ASPC1; assay: Pro-apoptotic activity in human AsPC1 cells assessed as early apoptotic cells at 75 uM after 24 hrs by annexin V/propidium iodide staining-based flow cytometric method (reference value: 0.8 +/- 0.1%); format: functional
[28] = Cell cycle arrest in human AsPC1 cells assessed as accumulation at G0/G1 phase at 100 uM after 24 hrs by flow cytometric method (reference value: 48 +/- 7%); format: functional, cell-based
[29] = system: ASPC1; assay: Pro-apoptotic activity in human AsPC1 cells assessed as necrotic cells at 100 uM after 24 hrs by annexin V/propidium iodide staining-based flow cytometric method (reference value: 2.1 +/- 0.4%); format: functional
[30] = Cell cycle arrest in human THP1 cells assessed as accumulation at S phase at 10 uM after 24 hrs by flow cytometric method (reference value: 16 +/- 2%); format: functional, cell-based; conditions: THP-1
[31] = system: THP-1; assay: Pro-apoptotic activity in human THP1 cells assessed as early apoptotic cells at 30 uM after 24 hrs by annexin V/propidium iodide staining-based flow cytometric method (reference value: 0.4 +/- 0.1%); format: functional
[32] = system: ASPC1; assay: Pro-apoptotic activity in human AsPC1 cells assessed as late apoptotic cells at 10 uM after 24 hrs by annexin V/propidium iodide staining-based flow cytometric method (reference value: 0.8 +/- 0.1%); format: functional
[33] = Cell cycle arrest in human THP1 cells assessed as accumulation at G2/M phase at 0.5 uM after 24 hrs by flow cytometric method (reference value: 32 +/- 1%); format: functional, cell-based; conditions: THP-1
[34] = Cell cycle arrest in human THP1 cells assessed as accumulation at S phase at 0.5 uM after 24 hrs by flow cytometric method (reference value: 16 +/- 2%); format: functional, cell-based; conditions: THP-1
[35] = Cell cycle arrest in human AsPC1 cells assessed as accumulation at G2/M phase at 1 uM after 24 hrs by flow cytometric method (reference value: 29 +/- 5%); format: functional, cell-based
[36] = Cell cycle arrest in human THP1 cells assessed as accumulation at G0/G1 phase at 0.5 uM after 24 hrs by flow cytometric method (reference value: 51 +/- 6%); format: functional, cell-based; conditions: THP-1

Compound: NC(=[Se])N/N=C/c1cccc2cccnc12
- Activity [1]: 31%
- Activity [2]: 26%
- Activity [3]: 1.9%
- Activity [4]: Dose-dependent effect
- Activity [5]: 21%
- Activity [6]: 0.4%
- Activity [7]: 4.1%
- Activity [8]: 0.4%
- Activity [9]: 4%
- Activity [10]: 65.4%
- Activity [11]: 17%
- IC50 [12]: 12.5 µM
- Activity [13]: 1.5%
- Activity [14]: 2.4%
- Activity [15]: 0.3%
- Activity [16]: 0.4%
- Activity [17]: 4.1%
- Activity [18]: 77%
- Activity [19]: 0.4%
- Activity [20]: 6%
- Activity [21]: 0.7%
- Activity [22]: 26.5%
- Activity [23]: Dose-dependent effect
- Activity [24]: 16.7%
- Activity [25]: 26%
- EC50 [26]: > 100 µM
- Activity [27]: 0.6%
- Activity [28]: 64.1%
- Activity [29]: 5.5%
- Activity [30]: 27%
- Activity [31]: 8%
- Activity [32]: 0.8%
- Activity [33]: 27%
- Activity [34]: 22%
- Activity [35]: 10.6%
- Activity [36]: 50%
